The record followed here is publication PMC6959544 (Bioorganic & medicinal chemistry, 2017).

For assay [1], the target named is hTRPV1 (Homo sapiens, UniProt Q8NER1). Briefly: In vitro hTRPV1 antagonism: inhibition of activation by capsaicin. In kind it is cell-based. Conditions: hTRPV1 in CHO cells, capsaicin 100 nM, FLIPR.
Assay [2] deals with CCI-induced cold allodynia (Bennett mouse model of neuropathic pain). In words: Analgesic activity on CCI-induced cold allodynia. In kind it is in vivo. Conditions: oral.
Assay [3] relates to capsaicin-induced hypothermia. Briefly: Capsaicin-induced hypothermia. In kind it is in vivo. Conditions: data not shown.

Chain of hTRPV1 (Q8NER1 whole entry): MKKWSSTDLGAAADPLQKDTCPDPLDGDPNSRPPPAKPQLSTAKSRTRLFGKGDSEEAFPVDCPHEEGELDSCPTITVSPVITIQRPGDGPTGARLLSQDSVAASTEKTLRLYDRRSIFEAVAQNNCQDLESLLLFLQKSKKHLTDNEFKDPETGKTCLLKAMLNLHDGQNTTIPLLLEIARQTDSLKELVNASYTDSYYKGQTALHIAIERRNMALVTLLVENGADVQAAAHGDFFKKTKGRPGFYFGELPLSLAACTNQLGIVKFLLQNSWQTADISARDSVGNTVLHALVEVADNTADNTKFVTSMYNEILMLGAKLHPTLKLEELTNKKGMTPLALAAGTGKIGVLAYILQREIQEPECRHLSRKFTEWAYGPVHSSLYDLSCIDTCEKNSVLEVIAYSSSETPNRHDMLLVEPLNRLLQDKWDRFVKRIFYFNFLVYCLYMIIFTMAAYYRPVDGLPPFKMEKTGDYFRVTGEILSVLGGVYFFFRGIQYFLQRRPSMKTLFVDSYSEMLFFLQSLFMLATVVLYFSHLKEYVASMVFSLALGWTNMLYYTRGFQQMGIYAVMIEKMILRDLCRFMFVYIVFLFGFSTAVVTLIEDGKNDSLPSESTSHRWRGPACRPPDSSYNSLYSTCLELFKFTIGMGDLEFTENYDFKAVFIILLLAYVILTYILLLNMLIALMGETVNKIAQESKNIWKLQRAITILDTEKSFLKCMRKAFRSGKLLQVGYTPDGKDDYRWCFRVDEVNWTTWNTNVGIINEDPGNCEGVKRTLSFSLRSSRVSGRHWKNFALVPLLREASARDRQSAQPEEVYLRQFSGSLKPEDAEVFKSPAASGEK

Consider `CC(C(=O)NCc1ccc(C(C)(C)C)nc1OCc1ccc(F)cc1)c1ccc(NS(C)(=O)=O)c(F)c1` (centres unmarked) [Compound 23, N-((6-(tert-Butyl)-2-((4-fluorobenzyl)oxy)pyridin-3-yl)methyl)-2-(3-fluoro-4-(methylsulfonamido)phenyl)propanamide], for which the “hTRPV1 antagonism (in words)” value in assay [1] is on record as “good antagonism”.
On to `C[C@H](C(=O)NCc1ccc(C(C)(C)C)nc1SC1CCCCC1)c1ccc(NS(C)(=O)=O)c(F)c1` [Compound 34S], for which, in assay [2] (3 mg/kg), the “antiallodynic effect on cold allodynia, % MPE” value is “greater than 50 % MPE”. In addition, the “in vivo functional character (in words)” value in assay [2] (10 mg/kg) is on record as “partial agonism”. Also, the “antiallodynic activity (in words)” value in assay [2] (dose increased from 3 mg/kg to 10 mg/kg) was “decreased antiallodynic activity”. Moreover, the “capsaicin-induced hypothermia, % MPE” value in assay [3] (3 mg/kg po) is listed as 46 % MPE; in assay [3] (10 mg/kg po), 15 % MPE.
For the molecule “N-((6-(tert-Butyl)-2-(cyclohexyloxy)pyridin-3-yl)methyl)-2-(3-fluoro-4-(methylsulfonamido)phenyl)propanamide [Compound 21]”, the “hTRPV1 antagonism (in words)” value in assay [1] was “clear reduction in potency”.
“N-((6-(tert-Butyl)-2-(cyclopentyloxy)pyridin-3-yl)methyl)-2-(3-fluoro-4-(methylsulfonamido)phenyl)propanamide [Compound 20]”: the “hTRPV1 antagonism (in words)” value in assay [1] was “clear reduction in potency”.
